In patent publication US20100143935A1, “c-KIT Phosphorylation in Cancer” (Apocell, Inc., priority 2006, published 2010):
Entries after “also recorded” stand apart in the source; their conditions may differ.

Experiments:
[1] = system: c-KIT phosphorylation at Y721; experiment: Laser scanning cytometry of phospho-Y721 c-KIT in tumor biopsies before and 2 weeks after imatinib; assay type: in vivo, human; details: responder, tumor biopsy 2 weeks after treatment vs baseline
Excerpt: FIG. 2. […] Tumor biopsies were stained by anti-phospho-Y721 c-KIT antibody followed by secondary antibody conjugated with a fluorescence probe. Laser scanning cytometry (LSC) was used to analyze the […] (MFI) across the tumor biopsies.
FIG. 3. […] (Top panels), Tumor biopsies obtained from the responder at baseline and 2 weeks after treatment (Post-treatment) were stained by anti-phospho-Y721 c-KIT antibody followed by secondary antibody conjugated with a fluorescence probe. Representative images are shown. The tumor sample stained only by the secondary antibody serves as a negative control. (Bottom panels), LSC was used to analyze the intensity of the phospho-Y721 of c-KIT (Cy5) across the entire cross section of tumor biopsies.
For c-KIT phosphorylation, tumor biopsies obtained at baseline (pre-treatment) and during the second week of treatment (post-treatment) were assayed. […] We also examined the levels of phospho-Y703.

[2] = system: endothelial and tumor cells; experiment: CD31-TUNEL dual immunofluorescence of tumor biopsies before and 2 weeks after imatinib; assay type: in vivo, human; details: for apoptosis of endothelial and tumor cells: responder, after 2 weeks of imatinib treatment
Excerpt: FIG. 4. […] The stained samples were further analyzed for apoptotic cells by TUNEL assay (green). Representative images are shown. The corresponding CD31 and TUNEL images are merged (Composite).

[3] = system: MeWo stable cell lines expressing PK or with PTP knock down; experiment: Imatinib sensitivity of stable MeWo cell lines expressing PK or with PTP knock down; assay type: cell-based, human; details: PK-expressing or PTP knock down lines vs empty vector control cells
melanoma = details: 800 mg/day; 26 patients; cited from earlier work
Phospho-c-KIT (Y721) = target: T1, Phospho-c-KIT (Y721) (Homo sapiens, UniProt P10721); experiment: c-KIT phosphorylation (Y721) in GIST patients treated with sunitinib; assay type: in vivo
T1 construct: GIST Patients Treated with Sunitinib; from tissue; host or cells: tumour material of GIST patients treated with sunitinib
T1 sequence (P10721 26-976): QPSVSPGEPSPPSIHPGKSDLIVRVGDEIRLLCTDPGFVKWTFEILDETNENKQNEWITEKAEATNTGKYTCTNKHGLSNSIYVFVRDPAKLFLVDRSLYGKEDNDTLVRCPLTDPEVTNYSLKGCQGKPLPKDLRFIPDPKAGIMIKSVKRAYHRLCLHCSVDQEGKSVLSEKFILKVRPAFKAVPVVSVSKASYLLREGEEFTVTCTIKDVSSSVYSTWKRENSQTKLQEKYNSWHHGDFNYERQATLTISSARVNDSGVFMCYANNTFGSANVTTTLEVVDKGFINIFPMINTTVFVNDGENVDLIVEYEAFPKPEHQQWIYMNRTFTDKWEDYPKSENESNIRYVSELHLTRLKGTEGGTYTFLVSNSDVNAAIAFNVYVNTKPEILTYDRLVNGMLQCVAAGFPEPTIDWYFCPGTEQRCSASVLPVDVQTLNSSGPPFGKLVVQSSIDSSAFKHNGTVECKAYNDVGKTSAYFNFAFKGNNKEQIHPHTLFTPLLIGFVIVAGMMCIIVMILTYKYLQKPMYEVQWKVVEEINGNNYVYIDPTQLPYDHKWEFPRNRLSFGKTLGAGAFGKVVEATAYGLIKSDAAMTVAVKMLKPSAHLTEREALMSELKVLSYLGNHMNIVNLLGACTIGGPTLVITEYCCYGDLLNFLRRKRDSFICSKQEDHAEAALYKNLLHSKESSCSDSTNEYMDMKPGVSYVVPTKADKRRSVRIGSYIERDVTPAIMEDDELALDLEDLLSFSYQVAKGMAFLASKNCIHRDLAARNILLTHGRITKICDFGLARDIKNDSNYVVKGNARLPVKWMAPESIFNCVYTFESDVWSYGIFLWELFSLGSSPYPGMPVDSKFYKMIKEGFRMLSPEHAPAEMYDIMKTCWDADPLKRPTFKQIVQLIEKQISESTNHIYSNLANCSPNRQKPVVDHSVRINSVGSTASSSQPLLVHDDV

Phospho-c-KIT (Y703) = target: T2, Phospho-c-KIT (Y703) (Homo sapiens, UniProt P10721); experiment: c-KIT phosphorylation (Y703) in GIST patients treated with sunitinib; assay type: in vivo
T2 construct: GIST Patients Treated with Sunitinib; from tissue; host or cells: tumour material of GIST patients treated with sunitinib
T2 sequence (P10721 26-976): as above

SMILES | levels of phospho-Y721 of c-KIT after imatinib treatment [1] | levels of phospho-Y721 of c-KIT after imatinib treatment ([1]; listed as imatinib) | increase of apoptotic endothelial and tumor cells ([2]; nonresponding patients' tumors) | apoptosis of endothelial and tumor cells [2] | apoptosis of endothelial and tumor cells ([2]; listed as imatinib) | sensitivity to imatinib-induced growth inhibition and apoptosis [3] | toxicity (melanoma) | Phospho-c-KIT (Y721) change (Phospho-c-KIT (Y721); NON-Responder) | Phospho-c-KIT (Y721) change (Phospho-c-KIT (Y721); Responder) | Phospho-c-KIT (Y703) change (Phospho-c-KIT (Y703); NON-Responder) | Phospho-c-KIT (Y703) change (Phospho-c-KIT (Y703); Responder)
Cc1ccc(NC(=O)c2ccc(CN3CCN(C)CC3)cc2)cc1Nc1nccc(-c2cccnc2)n1 [Imatinib] | inhibits | significantly reduced; also recorded: significant inhibition | not seen | induces | higher levels of apoptosis; also recorded: substantial increase | more sensitive | significant toxicity |  |  |  | 
CCN(CC)CCNC(=O)c1c(C)[nH]c(/C=C2\C(=O)Nc3ccc(F)cc32)c1C [Sunitinib, N-[2-(diethylamino)ethyl]-5-[(Z)-(5-fluoro-2-oxo-1,2-dihydro-3H-indol-3-ylidene)methyl]-2,4-dimethyl-1H-pyrrole-3-carboxamide] |  |  |  |  |  |  |  | 117% increase | 94% decrease | 45% increase | 57% decrease
